Assay results reported in publication PMC11997881, “Comprehensive Characterization of Bruton’s Tyrosine Kinase Inhibitor Specificity, Potency, and Biological Effects: Insights into Covalent and Noncovalent Mechanistic Signatures” (ACS Pharmacology & Translational Science, 2025).

Legend:
ERBB4 = ERBB4 (Homo sapiens, UniProt Q15303); experiment: scanMAX binding POC, ERBB4; details: 1 μM
MKK7 = target: T1, MKK7 (Homo sapiens, UniProt O14733); experiment: scanMAX binding POC, MKK7; details: 1 μM
T1 sequence (O14733 1-419): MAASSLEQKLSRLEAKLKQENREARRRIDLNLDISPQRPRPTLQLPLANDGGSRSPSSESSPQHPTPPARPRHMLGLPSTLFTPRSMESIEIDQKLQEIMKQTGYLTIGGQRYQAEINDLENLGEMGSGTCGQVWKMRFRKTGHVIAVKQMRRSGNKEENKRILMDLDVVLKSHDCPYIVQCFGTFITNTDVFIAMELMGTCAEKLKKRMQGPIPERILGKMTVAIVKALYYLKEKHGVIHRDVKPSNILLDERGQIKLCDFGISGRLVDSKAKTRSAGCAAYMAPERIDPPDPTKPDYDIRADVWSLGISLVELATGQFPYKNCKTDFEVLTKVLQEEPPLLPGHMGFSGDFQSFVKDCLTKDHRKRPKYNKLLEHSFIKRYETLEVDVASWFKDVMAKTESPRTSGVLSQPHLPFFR

JNK3 (MAPK10) = JNK3 (MAPK10) (Homo sapiens, UniProt P53779); experiment: scanMAX binding POC, JNK3; details: 1 μM
Method: (§9) The compounds were diluted directly into the assays such that the final concentration of DMSO was 0.9%. No enzyme purification steps were performed on the protein extracts before adding them to the reaction mixture, and the protein extracts were diluted 10,000-fold in the final reaction mixture (the final DNA-tagged enzyme concentration was less than 0.1 nM). Binding assay mixtures were incubated at 25 °C with shaking for 1 h. […] The concentration of wild-type or mutant BTK in the eluates was then determined using quantitative PCR. […] Each assay’s affinity ligand concentration on the magnetic beads has been optimized to ensure that the true thermodynamic Kd values for competitor molecules were measured, as described in detail previously99.
(§10) Comparison of BTK inhibitor specificity to c-Jun N-terminal kinases (JNK1-3/MAPKP8-10).
(§11) a The percent of control (POC) is the percent of kinase that was competed off its control ligand relative to the positive and negative controls at the screening concentration56. A zero POC signifies that the compound

JNK2 (MAPK9) = JNK2 (MAPK9) (Homo sapiens, UniProt P45984); experiment: scanMAX binding POC, JNK2; details: 1 μM
Method: as §9, §10, §11

TEC = target: T2, TEC (Homo sapiens, UniProt P42680); experiment: scanMAX binding POC, TEC; details: 1 μM
T2 sequence (P42680 1-631): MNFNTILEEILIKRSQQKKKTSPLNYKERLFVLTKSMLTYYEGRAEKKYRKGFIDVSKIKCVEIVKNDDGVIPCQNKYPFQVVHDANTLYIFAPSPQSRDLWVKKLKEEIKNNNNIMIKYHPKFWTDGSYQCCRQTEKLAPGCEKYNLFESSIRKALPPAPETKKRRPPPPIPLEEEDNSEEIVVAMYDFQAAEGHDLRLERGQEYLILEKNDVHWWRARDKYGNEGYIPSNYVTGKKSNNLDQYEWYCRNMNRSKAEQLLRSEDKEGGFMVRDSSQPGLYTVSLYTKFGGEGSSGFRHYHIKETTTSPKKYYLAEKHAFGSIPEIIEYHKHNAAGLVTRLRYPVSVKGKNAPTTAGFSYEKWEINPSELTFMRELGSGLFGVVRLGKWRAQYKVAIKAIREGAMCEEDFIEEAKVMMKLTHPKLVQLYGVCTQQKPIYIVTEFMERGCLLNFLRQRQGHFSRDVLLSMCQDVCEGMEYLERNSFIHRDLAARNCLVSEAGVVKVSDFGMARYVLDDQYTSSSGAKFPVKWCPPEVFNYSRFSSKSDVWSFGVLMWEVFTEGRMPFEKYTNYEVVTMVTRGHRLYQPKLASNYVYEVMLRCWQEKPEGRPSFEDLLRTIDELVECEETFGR
Text: (§1) Comprehensive Characterization of Bruton’s Tyrosine Kinase Inhibitor Specificity, Potency, and
(§2) Biological Effects: Insights into Covalent and Non-Covalent Mechanistic Signatures
(§3) Antonia C. Darragh1, Andrew M. Hanna1, Justin H. Lipner2, Alastair J. King2, Nicole B. Servant1, Mirza Jahic1*
(§4) *To whom correspondence should be addressed: Mirza Jahic, e-mail address: Mirza.Jahic@discovery.eurofinsus.com
(§5) Supporting Table S1. Comparison of BTK inhibitor specificity to TEC family members. TEC family members are
(§6) Burton’s tyrosine kinase (BTK), tyrosine kinase expressed in hepatocellular carcinoma (TEC), bone marrow-
(§7) expressed kinase (BMX/ETK), and T cell-expressed kinase (TXK/RLK), and interleukin-2-inducible T cell kinase
(§8) A zero POC signifies that the compound

TXK = target: T3, TXK (Homo sapiens, UniProt P42681); experiment: scanMAX binding POC, TXK; details: 1 μM
T3 sequence (P42681 1-527): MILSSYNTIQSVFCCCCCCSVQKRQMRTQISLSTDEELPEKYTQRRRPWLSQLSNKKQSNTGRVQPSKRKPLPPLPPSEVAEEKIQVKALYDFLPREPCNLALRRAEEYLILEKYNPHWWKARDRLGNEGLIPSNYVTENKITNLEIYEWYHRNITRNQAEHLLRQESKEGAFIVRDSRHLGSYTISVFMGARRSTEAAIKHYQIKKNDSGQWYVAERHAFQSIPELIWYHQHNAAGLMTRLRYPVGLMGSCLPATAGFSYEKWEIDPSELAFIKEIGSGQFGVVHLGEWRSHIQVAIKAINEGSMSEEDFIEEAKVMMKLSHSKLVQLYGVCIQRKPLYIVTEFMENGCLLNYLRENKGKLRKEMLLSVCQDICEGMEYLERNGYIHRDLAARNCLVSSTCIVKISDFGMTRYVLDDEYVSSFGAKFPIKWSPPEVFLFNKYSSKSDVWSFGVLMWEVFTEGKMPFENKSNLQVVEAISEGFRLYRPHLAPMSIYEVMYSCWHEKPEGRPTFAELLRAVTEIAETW
Text: as §1, §2, §3, §4, §5, §6, §7, §8

ITK = target: T4, ITK (Homo sapiens, UniProt Q08881); experiment: scanMAX binding POC, ITK; details: 1 μM
T4 sequence (Q08881 1-620): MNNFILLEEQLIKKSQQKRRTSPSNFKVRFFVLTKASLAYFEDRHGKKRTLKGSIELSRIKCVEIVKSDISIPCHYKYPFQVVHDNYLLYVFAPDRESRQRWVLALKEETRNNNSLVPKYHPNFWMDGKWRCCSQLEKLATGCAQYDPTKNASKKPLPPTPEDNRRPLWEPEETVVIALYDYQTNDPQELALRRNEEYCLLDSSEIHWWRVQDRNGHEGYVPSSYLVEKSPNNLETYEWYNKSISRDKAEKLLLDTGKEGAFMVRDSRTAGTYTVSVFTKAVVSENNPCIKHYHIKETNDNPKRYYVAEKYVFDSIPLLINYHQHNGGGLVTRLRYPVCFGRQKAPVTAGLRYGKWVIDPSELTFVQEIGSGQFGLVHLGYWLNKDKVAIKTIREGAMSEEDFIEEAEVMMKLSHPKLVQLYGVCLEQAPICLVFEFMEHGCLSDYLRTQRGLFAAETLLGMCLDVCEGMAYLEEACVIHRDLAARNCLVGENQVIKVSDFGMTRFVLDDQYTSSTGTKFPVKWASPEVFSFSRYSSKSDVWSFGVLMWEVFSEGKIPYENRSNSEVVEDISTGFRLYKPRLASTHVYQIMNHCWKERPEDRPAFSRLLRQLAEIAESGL
Text: as §1, §2, §3, §4, §5, §6, §7, §8

[1] = target: T5, JAK3 (JH1 catalytic domain) (Homo sapiens, UniProt P52333); experiment: scanMAX binding POC, JAK3; details: 1 μM
T5 construct: The JAK3 POC is for its JH1 catalytic domain

JNK1 (MAPK8) = JNK1 (MAPK8) (Homo sapiens, UniProt P45983); experiment: scanMAX binding POC, JNK1; details: 1 μM
Method: as §9, §10, §11

BLK = BLK (Homo sapiens, UniProt P51451); experiment: scanMAX binding POC, BLK; details: 1 μM
BTK [2] = target: T6, BTK (Homo sapiens, UniProt Q06187); experiment: scanMAX binding POC, BTK; details: 1 μM; zero POC = competition comparable to positive control
T6 construct: host or cells: transiently transfected HEK293 cells
Text: as §1, §2, §3, §4, §5, §6, §7, §8

ERBB2 = ERBB2 (Homo sapiens, UniProt P04626); experiment: scanMAX binding POC, ERBB2; details: 1 μM
ERBB3 = ERBB3 (Homo sapiens, UniProt P21860); experiment: scanMAX binding POC, ERBB3; details: 1 μM
EGFR = EGFR (Homo sapiens, UniProt P00533); experiment: scanMAX binding POC, EGFR; details: 1 μM
[3] = tested on: 468 kinases/kinase domains; details: scanMAX at 1 μM, POC <35
Method: The compounds were diluted directly into the assays such that the final concentration of DMSO was 0.9%. No enzyme purification steps were performed on the protein extracts before adding them to the reaction mixture, and the protein extracts were diluted 10,000-fold in the final reaction mixture (the final DNA-tagged enzyme concentration was less than 0.1 nM). Binding assay mixtures were incubated at 25 °C with shaking for 1 h. […] The concentration of wild-type or mutant BTK in the eluates was then determined using quantitative PCR.

BTK [4] = details: cited from earlier work
BMX = target: T7, BMX (Homo sapiens, UniProt P51813); experiment: scanMAX binding POC, BMX; details: 1 μM
T7 sequence (P51813 1-675): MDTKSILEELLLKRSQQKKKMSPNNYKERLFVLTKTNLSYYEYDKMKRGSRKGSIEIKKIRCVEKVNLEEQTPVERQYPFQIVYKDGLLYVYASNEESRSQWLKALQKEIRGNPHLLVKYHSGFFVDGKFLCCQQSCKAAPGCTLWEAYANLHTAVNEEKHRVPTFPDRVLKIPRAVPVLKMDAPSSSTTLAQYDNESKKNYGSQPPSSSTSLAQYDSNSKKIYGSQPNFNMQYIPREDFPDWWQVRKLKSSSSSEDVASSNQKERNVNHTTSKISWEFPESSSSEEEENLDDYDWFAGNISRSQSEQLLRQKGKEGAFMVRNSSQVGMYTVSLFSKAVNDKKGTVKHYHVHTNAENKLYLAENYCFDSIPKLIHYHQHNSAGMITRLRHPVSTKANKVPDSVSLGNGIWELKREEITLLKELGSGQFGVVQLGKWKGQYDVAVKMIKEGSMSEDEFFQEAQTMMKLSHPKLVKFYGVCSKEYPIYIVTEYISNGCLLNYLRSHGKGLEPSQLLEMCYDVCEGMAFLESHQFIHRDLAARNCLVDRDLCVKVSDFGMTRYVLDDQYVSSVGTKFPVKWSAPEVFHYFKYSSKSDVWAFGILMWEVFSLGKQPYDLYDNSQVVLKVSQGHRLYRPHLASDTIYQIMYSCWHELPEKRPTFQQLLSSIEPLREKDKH
Text: as §1, §2, §3, §4, §5, §6, §7, §8

ERBB4, sequence (Q15303 26-1308): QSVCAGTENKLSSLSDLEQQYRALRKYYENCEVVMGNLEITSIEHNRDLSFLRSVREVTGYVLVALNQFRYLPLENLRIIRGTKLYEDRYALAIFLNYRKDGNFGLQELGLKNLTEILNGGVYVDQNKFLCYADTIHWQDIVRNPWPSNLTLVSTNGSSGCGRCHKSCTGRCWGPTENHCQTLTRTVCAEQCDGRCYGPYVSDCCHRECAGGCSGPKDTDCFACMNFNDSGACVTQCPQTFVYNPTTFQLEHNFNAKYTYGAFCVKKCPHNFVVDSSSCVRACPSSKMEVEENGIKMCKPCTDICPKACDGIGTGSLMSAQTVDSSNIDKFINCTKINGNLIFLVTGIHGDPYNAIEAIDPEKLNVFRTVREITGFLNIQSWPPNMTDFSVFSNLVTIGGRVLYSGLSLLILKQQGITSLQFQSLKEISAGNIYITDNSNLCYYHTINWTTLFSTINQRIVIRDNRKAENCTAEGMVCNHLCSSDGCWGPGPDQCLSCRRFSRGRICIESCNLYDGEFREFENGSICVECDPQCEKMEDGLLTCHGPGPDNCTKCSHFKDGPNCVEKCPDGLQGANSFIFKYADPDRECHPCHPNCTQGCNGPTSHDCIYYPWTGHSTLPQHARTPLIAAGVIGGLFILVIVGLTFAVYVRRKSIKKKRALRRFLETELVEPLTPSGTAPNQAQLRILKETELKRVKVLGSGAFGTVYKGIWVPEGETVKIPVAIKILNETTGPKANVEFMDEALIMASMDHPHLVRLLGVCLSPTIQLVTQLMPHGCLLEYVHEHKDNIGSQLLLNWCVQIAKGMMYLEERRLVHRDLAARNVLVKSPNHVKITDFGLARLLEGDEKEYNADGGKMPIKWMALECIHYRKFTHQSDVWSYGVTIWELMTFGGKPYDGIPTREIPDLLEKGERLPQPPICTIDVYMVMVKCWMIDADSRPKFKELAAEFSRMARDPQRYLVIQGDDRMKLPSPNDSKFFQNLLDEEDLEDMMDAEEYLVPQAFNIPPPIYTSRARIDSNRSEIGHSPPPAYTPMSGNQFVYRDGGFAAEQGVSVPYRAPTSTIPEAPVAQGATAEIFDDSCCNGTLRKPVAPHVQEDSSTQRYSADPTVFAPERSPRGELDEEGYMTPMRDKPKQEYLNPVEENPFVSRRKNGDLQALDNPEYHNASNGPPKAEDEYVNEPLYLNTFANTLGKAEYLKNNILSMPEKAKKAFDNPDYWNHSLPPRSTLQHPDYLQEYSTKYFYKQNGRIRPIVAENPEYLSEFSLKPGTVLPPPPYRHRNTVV
T5 sequence (P52333 822-1111 limits assumed): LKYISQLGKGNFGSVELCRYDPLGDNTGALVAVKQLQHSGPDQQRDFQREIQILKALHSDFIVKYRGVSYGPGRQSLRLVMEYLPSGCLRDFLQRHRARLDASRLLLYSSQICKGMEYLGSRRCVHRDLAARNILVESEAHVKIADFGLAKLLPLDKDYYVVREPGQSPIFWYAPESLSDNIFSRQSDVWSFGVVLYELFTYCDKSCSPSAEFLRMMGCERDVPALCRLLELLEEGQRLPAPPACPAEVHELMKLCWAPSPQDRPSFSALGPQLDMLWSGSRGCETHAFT
EGFR, sequence (P00533 25-1210): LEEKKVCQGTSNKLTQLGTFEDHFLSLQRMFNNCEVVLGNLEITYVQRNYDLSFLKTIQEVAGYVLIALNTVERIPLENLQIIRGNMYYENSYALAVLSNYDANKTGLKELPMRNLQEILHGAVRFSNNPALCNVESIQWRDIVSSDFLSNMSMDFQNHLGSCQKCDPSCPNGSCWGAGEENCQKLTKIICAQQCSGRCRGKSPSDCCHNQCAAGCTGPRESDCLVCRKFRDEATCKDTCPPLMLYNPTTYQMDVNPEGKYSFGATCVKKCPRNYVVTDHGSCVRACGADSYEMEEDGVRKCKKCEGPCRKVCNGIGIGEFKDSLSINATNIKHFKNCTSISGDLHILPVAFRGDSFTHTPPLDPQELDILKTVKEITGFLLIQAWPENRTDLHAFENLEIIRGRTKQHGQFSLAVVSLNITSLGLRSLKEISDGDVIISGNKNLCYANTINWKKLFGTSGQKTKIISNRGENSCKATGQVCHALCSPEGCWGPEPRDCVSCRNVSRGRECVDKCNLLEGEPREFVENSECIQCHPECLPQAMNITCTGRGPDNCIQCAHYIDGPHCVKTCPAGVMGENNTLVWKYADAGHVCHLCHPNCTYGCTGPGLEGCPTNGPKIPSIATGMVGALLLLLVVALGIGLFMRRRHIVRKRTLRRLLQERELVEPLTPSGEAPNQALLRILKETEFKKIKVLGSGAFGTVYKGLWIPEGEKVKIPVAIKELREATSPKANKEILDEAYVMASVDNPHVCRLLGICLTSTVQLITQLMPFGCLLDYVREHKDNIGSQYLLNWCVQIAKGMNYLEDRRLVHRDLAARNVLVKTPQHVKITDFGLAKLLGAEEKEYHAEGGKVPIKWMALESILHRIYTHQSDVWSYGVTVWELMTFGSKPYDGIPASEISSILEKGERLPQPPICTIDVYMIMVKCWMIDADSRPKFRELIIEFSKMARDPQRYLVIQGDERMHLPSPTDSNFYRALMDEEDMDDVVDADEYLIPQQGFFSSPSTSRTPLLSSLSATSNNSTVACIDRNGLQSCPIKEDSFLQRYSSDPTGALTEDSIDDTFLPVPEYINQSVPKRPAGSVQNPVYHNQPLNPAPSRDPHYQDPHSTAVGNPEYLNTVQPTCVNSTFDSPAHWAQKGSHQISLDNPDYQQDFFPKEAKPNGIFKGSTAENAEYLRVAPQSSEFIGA
JNK1 (MAPK8), sequence (P45983 whole entry): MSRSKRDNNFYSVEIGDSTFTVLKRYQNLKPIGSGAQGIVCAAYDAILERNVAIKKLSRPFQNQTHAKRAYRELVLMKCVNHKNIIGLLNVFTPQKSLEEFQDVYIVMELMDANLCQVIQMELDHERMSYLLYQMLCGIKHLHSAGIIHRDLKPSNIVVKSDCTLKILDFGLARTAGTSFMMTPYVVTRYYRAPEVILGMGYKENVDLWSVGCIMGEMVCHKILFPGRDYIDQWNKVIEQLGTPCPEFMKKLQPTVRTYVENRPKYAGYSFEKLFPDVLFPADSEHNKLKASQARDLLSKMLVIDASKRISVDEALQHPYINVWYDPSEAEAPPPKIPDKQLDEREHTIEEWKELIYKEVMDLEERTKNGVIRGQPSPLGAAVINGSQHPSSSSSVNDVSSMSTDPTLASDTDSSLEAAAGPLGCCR
JNK2 (MAPK9), sequence (P45984 whole entry): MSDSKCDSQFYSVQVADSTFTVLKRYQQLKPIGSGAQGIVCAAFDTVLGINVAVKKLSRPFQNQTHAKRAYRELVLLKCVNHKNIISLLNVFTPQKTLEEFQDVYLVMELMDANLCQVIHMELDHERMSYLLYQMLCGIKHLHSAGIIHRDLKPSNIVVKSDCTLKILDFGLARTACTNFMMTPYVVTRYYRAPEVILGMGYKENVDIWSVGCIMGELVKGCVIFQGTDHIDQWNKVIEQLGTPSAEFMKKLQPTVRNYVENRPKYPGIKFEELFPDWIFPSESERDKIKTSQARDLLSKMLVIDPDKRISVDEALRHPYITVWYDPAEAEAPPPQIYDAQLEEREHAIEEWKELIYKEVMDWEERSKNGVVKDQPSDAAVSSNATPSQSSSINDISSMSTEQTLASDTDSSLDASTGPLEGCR
ERBB2, sequence (P04626 23-1255): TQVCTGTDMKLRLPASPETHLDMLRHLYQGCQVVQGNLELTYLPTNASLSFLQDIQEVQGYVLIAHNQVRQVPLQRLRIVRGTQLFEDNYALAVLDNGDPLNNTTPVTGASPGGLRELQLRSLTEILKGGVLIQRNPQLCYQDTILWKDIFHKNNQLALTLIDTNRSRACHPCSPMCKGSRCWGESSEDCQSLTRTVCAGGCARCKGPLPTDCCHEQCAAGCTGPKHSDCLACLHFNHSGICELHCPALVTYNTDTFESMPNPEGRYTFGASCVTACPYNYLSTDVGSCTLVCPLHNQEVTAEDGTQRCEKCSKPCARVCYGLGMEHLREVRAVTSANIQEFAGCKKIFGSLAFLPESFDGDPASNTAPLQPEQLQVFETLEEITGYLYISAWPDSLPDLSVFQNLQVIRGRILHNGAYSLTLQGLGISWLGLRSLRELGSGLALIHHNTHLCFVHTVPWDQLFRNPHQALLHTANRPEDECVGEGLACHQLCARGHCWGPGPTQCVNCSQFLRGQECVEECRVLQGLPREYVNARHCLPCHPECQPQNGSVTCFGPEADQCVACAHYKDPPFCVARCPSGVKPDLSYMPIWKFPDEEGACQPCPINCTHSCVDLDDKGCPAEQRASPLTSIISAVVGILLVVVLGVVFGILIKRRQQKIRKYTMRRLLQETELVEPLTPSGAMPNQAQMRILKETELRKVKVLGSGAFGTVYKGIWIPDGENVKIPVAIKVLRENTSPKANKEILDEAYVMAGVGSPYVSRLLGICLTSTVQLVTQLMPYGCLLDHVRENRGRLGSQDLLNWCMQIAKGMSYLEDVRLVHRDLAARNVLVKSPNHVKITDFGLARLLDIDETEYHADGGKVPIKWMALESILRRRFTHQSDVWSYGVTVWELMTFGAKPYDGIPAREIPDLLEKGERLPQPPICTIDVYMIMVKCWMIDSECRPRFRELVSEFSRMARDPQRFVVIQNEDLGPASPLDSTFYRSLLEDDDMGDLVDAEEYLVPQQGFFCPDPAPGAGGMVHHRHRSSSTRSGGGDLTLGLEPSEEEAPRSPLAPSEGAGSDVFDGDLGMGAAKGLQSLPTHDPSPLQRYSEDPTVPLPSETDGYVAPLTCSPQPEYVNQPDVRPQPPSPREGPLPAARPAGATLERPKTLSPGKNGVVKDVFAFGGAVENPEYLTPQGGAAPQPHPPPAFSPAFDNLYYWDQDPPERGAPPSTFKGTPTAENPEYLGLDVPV

SMILES	ERBB4 binding POC (ERBB4)	MKK7 binding POC (MKK7)	JNK3 (MAPK10) POC (JNK3 (MAPK10))	JNK2 (MAPK9) POC (JNK2 (MAPK9))	TEC binding POC (TEC)	TXK binding POC (TXK)	ITK binding POC (ITK)	JAK3 binding POC [1]	JNK1 (MAPK8) POC (JNK1 (MAPK8))	BLK binding POC (BLK)	BTK binding POC (BTK [2])	ERBB2 binding POC (ERBB2)	ERBB3 binding POC (ERBB3)	EGFR binding POC (EGFR)	off-target hits [3]	IC50 (BTK [4]) [nM]	MKK7 binding POC (MKK7; listed as tolebrutinib)	BMX binding POC (BMX)
CC#CC(=O)N[C@H]1CCCN(c2c(F)cc(C(N)=O)c3[nH]c(C)c(C)c23)C1 [Branebrutinib]	75% of control	100% of control	89% of control	89% of control	7.8% of control	2% of control	17% of control	48% of control	82% of control	3.2% of control	0% of control	100% of control	75% of control	77% of control				
C=CC(=O)N1CCC(CNc2ncnc(N)c2-c2ccc(Oc3ccccc3)cc2)CC1 [Evobrutinib]	32% of control	100% of control	100% of control	100% of control	10% of control	23% of control		100% of control	95% of control			91% of control	97% of control	88% of control				
C=CC(=O)N(C)CCOc1c(N)ncnc1-c1cc(F)cc(NC(=O)c2ccc(C3CC3)cc2F)c1C [Remibrutinib]	100% of control	100% of control	100% of control	99% of control	20% of control	97% of control	97% of control	100% of control	93% of control	100% of control	0.15% of control	100% of control	100% of control	99% of control	one	1.3		
C=CC(=O)N1CCC[C@@H](n2c(=O)n(-c3ccc(Oc4ccccc4)cc3)c3c(N)nccc32)C1 [Tolebrutinib]		19% of control	90% of control	83% of control		1.1% of control	67% of control	36% of control	96% of control	0.05% of control		0% of control	0.8% of control				weak hit	11% of control
